Here are results for two molecules from US20130005696A1, “BUFADIENOLIDE DERIVATIVES, PREPARING PROCESS THEREOF, COMPOSITION COMPRISING THE SAME AND THE USE THEREOF” (priority 2011, published 2013).

Where two headings read alike, the source gives them in different places.

The subject of data set [1] is HT1080 human fibrosarcoma cell line. As to the kind of experiment: In vitro antitumor activity assay (SRB), HT1080. In kind it is cell-based. The note with it: HT1080, 72 h, Table 3. An excerpt: (§1) HeLa human cervical carcinoma cell line, A-549 human non-small cell lung carcinoma cell line, NCI-H2228 human lung carcinoma cell line, NCI-H460 human lung carcinoma cell line, MDA-MB-231 human breast carcinoma cell line, MCF-7 human breast carcinoma cell line, Bel-7402 human hepatic carcinoma cell line, Hep3B human hepatic carcinoma cell line, QGY-7703 human hepatic carcinoma cell line, MV-4-11 human leukemic cell line, DAUDI human leukemic cell line, Jurkat human leukemic cell line, A498 renal carcinoma cell line, LoVo human colon carcinoma cell line, HCT1116 human colon carcinoma cell line, A431 human skin carcinoma cell line, PANC-1 human pancreatic carcinoma cell line, U87-MG human brain carcinoma cell line, SH-SY5Y human brain carcinoma cell line, RPMI-8226 human bone carcinoma cell line, HT1080 human fibrosarcoma cell line, PC-3 human prostatic carcinoma cell line, AGS human gastric adenocarcinoma cell line, and BGC-823 human gastric adenocarcinoma cell line were purchased from the Cell Bank of the Chinese Academy of Sciences.
(§2) The positive control is bufalin (formulated according to the common method), its purity is 98% or more by HPLC-UV and its structure is identified by NMR. The compounds to be tested and the positive control were diluted with normal saline with a concentration gradient of 10^−4 M, 10^−5 M, 10^−6 M, 10^−7 M and 10^−8 M.
(§3) According to cell growth rate, tumor cells in the log phase of growth were seeded into 96-well culture plates at 100 μL per well, and allowed to attach for 24 hours, followed by addition of a test compound or positive control at 10 μL per well. For each concentration, the test was carried out in triplicate wells. […] Finally, Tris solution was added at 150 μL per well, and the absorbance (A) was measured at a wavelength of 515 nm using a microplate reader. The growth inhibition on tumor cell proliferation was calculated according to the following equation:
(§4) Growth Inhibition (%)=[(Absorbance of negative control−Absorbance of blank)−(Absorbance of sample−Absorbance of blank)]/(Absorbance of negative control−Absorbance of blank)×100% […]

In data set [2] the test system is NCI-H460 human lung carcinoma cell line. The experiment in a line: In vitro antitumor activity assay (SRB), NCI-H460. Format: cell-based. Particulars: NCI-H460, 72 h, Table 3.
Text: as §1, §2, §3, §4

Data set [3] deals with AGS human gastric adenocarcinoma cell line. As to the kind of experiment: In vitro antitumor activity assay (SRB), AGS. The note with it: 72 h, Table 3. Format: cell-based.
Text: as §1, §2, §3, §4

Data set [4] deals with HCT-116 human-derived tumor cell line. As to the kind of experiment: In vitro antitumor activity assay (SRB), HCT-116. Format: cell-based. The note with it: HCT-116, 72 h, Table 3.
Text: as §1, §2, §3, §4

Data set [5] concerns A431 human skin carcinoma cell line. As to the kind of experiment: In vitro antitumor activity assay (SRB), A431. Particulars: A431, 72 h, Table 3. Format: cell-based.
Text: as §1, §2, §3, §4

Data set [6] concerns PANC-1 human pancreatic carcinoma cell line. The experiment in a line: In vitro antitumor activity assay (SRB), PANC-1. Format: cell-based. Particulars: PANC-1, 72 h, Table 3.
Text: as §1, §2, §3, §4

In data set [7] the test system is RPMI-8226 human bone carcinoma cell line. As to the kind of experiment: In vitro antitumor activity assay (SRB), RPMI8226. In kind it is cell-based. Particulars: RPMI8226, 72 h, Table 3.
Text: as §1, §2, §3, §4

Data set [8] deals with U87-MG human brain carcinoma cell line. The experiment in a line: In vitro antitumor activity assay (SRB), U87-MG. Particulars: 72 h, Table 3. In kind it is cell-based.
Text: as §1, §2, §3, §4

Data set [9] is described as follows: In vivo acute toxicity assay in mouse. Particulars: for LD50: in vivo, ip. How it is done:
Sample Name: bufalin, II1E-01.HCl
35.8 mg of II1E-01.HCl was weighted, added with 1.78 mL of anhydrous ethanol, and dissolved completely under ultrasonication. 16.02 mL of 5% glucose injection was added and agitated homogeneously. The solution was filtered with a 0.2 μm filtration membrane to obtain a stock solution with a concentration of 2 mg/mL, wherein the content of ethanol is 10%. The highest dosage is 20 mg/kg, calculated based on the administration volume of 0.1 mL/10 g body weight of mouse.

Data set [10] is described as follows: Maximum tolerable dosage (basis of dosage selection). Particulars: in vivo. On the procedure:
After the tumor size reaches about 200 mm^3, the mice bearing the tumor were grouped randomly into 8 groups according to the tumor size, including the groups of solvent control, positive control rapamycin 5 mg/kg, II1E-01.HCl 2 mg/kg, II1E-01.HCl 4 mg/kg, II1E-01.HCl 6 mg/kg, II1B-02.HCl 4 mg/kg, II1D-06.HCl 4 mg/kg, bufalin 1.6 mg/kg, wherein the dosage selection is based on that the maximum tolerable dosage is 1.6 mg/kg for bufalin and 6 mg/kg for II1E-01.HCl. Rapamycin was administered intravenously once a week (QW) and the other groups were administered intraperitoneally once every other day (QOD). The tumor was weighted after 21 days to calculate the inhibition rate. The equation for calculating inhibition rate (IR) is IR=(WC−WT)/WC×100%, wherein, WC represents the tumor weight of the control group, and WT represents the tumor weight of the treating group.

For orientation: IC50 means the concentration needed to halve the response being measured. A low value points to greater potency. For `C[C@]12CC[C@H](OC(=O)NC3CCNCC3)C[C@H]1CC[C@@H]1[C@@H]2CC[C@]2(C)[C@@H](c3ccc(=O)oc3)CC[C@]12O.Cl` [II1E-01•HCl], the 50% inhibitory concentration (IC50) in [1] turned out to be 2.34 ± 0.1 nM; in data set [2] it was 0.67 ± 0.03 nM; in data set [3] it was 9.35 ± 0.53 nM; in data set [4], 2.13 ± 0.28 nM; in data set [5], 3.31 ± 0.09 nM; in data set [6], 0.57 ± 0.06 nM. In addition, the IC50 in data set [7] came to 1.71 ± 0.03 nM; in [8] it was 1.98 ± 0.3 nM. In addition, the “LD50 of intraperitoneal administration, female mouse” value in data set [9] (intraperitoneal, female mouse) is “about 18.21 mg/kg”. In data set [9] (intraperitoneal, male mouse), the “LD50 of intraperitoneal administration, male mouse” value is recorded as “about 14.75 mg/kg”. Further, in data set [9] (intravenous, female mouse), the “LD50 of intravenous administration, female mouse” value is listed as “about 16.51 mg/kg”. In addition, the “LD50 of intravenous administration, male mouse” value in [9] (intravenous, male mouse) was “about 13.60 mg/kg”. For the same molecule, the “in vivo acute toxicity in mouse compared with bufalin, in words” value in [9] (mouse) is given as “lower in vivo acute toxicity in mouse than bufalin”. Also, the maximum tolerable dosage in data set [10] is 6 mg/kg.

Consider `C[C@]12CC[C@H](O)C[C@H]1CC[C@@H]1[C@@H]2CC[C@]2(C)[C@@H](c3ccc(=O)oc3)CC[C@]12O` [bufalin, reference compound], for which the half-maximal inhibitory concentration (IC50) worked out at 11.3 ± 0.38 nM in data set [1] (Homo sapiens, HT-1080); 6.89 ± 0.87 nM in data set [2] (Homo sapiens); 51.8 ± 1.34 nM in data set [3] (Homo sapiens); 9.69 ± 0.64 nM in [4] (Homo sapiens); 26.6 ± 5.35 nM in data set [5] (Homo sapiens, A-431); 9.88 ± 0.27 nM in data set [6] (Homo sapiens). Besides, the IC50 was 13.5 ± 0.82 nM in data set [7] (Homo sapiens, RPMI-8226) and 13 ± 1.74 nM in data set [8] (Homo sapiens, U-87 MG). Moreover, the LD50 is around 2.8 mg/kg in [9] (intraperitoneal, female mouse, read-out: LD50 of intraperitoneal administration, female mouse) and around 2.4 mg/kg in data set [9] (intraperitoneal, male mouse, read-out: LD50 of intraperitoneal administration, male mouse). The same molecule returned a maximum tolerable dosage in [10] (mouse) of 1.6 mg/kg.
